Measurements: patent publication US20120238488A1, “COMPOUNDS AND METHODS FOR TREATING NEOPLASIA” (priority 2009, published 2012)

What was measured:
[1] = tested on: DU145 prostate cancer cells; test: MTT assay, combination with paclitaxel; conditions: DU145, FIG. 1E
Protocol: Cell proliferation/viability was assessed by the MTT [3-(4,5-dimethylthiazol-2-yl)-2,5-diphenyltetrazolium bromide] assay, which is commercially available (Sigma, St. Louis, Mo.). Cells were cultured in 96-well plates for twenty-four hours (7-10.000 cells/well) and incubated with various concentrations of the compounds of the invention in serum-containing medium (or left untreated) for seventy-two hours. At the end of incubation, the medium was aspirated and MTT dissolved in RPMI 1640 w/o phenol red was added to each well to a final concentration of 0.25 mg/ml. After four hours incubation in the dark (37° C., 5% CO2) the supernatant was discarded. The converted dye (blue formazan crystals) was solubilized by adding 200 μl dimethylsulfoxide to each well. Absorbance was measured at 550 nm with reference at 655 nm using a spectrophotometer with the respective filters. All assays were performed in triplicate.

[2] = tested on: membrane androgen receptor; test: Membrane androgen receptor competition assay, LNCaP cells; assay type: binding; conditions: 40 μM compound 30 minutes before 40 μM testosterone-HSA-FITC, FIG. 3A
Protocol: After a 24 hour serum starvation period, cells were incubated with 40 μM testosterone-HSA-FITC for 1 hour at room temperature. […] Human serum albumin-FITC was used as a control for background staining. After permeabilization with ice-cold acetone for 4 minutes at room temperature, cell nuclei were stained with DAPI. Coverslips were mounted on slides by using the Slow Fade/Antifade Reagent (Molecular Probes) and studied under a LEICA DMLB microscope, equipped with the appropriate fluorescence filters and a Leica DC 300F camera. Specimens were analyzed using the Leica FW4000 computer program.
To determine the capacity of a given compound to preclude binding of fluorescent testosterone-HSA conjugates (TAC) to the membrane androgen receptor, starved LNCaP or DU145 cells on coverslips prepared as described above were pre-treated with 40 μM of the indicated compound for 30 minutes prior to the addition of testosterone-HSA-FITC. At the end of the incubation period, cells were washed twice with PBS and 40 μM of testosterone-HSA-FITC was added. Specimens were prepared and analyzed as described above.

UAC032 (Melanoma) = test: SRB assay, UAC032; assay type: cell-based, human; conditions: 48 h
Protocol: (§1) SRB assays were performed according to standard National Cancer Institute Guidelines. Briefly, human tumor cells from different cancer panels were seeded into 96 well plates in 100 μL (plating densities ranging from 5-40,000 cells/well depending on the doubling time of individual cell lines) in serum-containing media for twenty-four hours prior to the addition of the compounds to be assayed. After 24 hours, one plate of each cell line was fixed in situ with trichloroacetic acid (TCA). The fixed slides were used to determine the cell population for each cell line at the time of drug addition (Tz). Each compound to be tested was solubilized in DMSO and the desired concentration was then added to the medium and diluted serially 1:10 to provide a total of five or ten drug concentrations plus control (in a final volume of 200 μL). The starting dose before any dilution was 100 uM for all compounds.
(§2) Following drug addition, each culture was incubated for forty-eight hours. The assay was terminated with the addition of cold TCA. The supernatant was discarded, and the plates were washed with tap water and air dried. Sulforhodamine B (SRB) solution was then added to each well. After staining, the bound stain was solubilized and the absorbance was read on an automated plate reader at a wavelength of 515 nm.
(§3) Using the absorbance measurements [time zero, (Tz), control growth, (C), and test growth in the presence of drug at the ten concentration levels (Ti)], the percentage growth was calculated at each of the drug concentrations levels. Percentage growth inhibition was calculated as:
(§4) [(Ti−Tz)/(C−Tz)]×100 for concentrations for which Ti>/=Tz […]
(§5) Three dose response parameters were calculated for each experimental agent. […] The drug concentration resulting in total growth inhibition (TGI) was calculated from Ti=Tz. […]
(§6) Values were calculated for each of these three parameters when the level of activity was reached; however, if the effect was not reached or was exceeded, the value for that parameter was expressed as greater or less than the maximum or minimum concentration tested. […]

SF295 (CNS) = test: SRB assay, SF295; assay type: cell-based, human
Protocol: as §1, §2, §3, §4, §5, §6

[3] = tested on: membrane androgen receptor; test: Membrane androgen receptor competition assay, DU145 cells; assay type: binding; conditions: 40 μM compound 30 minutes before 40 μM testosterone-HSA-FITC, FIGS. 3B, 3C
Excerpt: To assess whether compounds of the invention were capable of binding directly to the membrane androgen receptor, a fluorescent-based assay was used to measure the ability of a given compound to preclude binding of a fluorescent mAR ligand (testosterone-HSA-FITC conjugates) to its receptor in LNCaP and DU145 cells (see Kampa, M et al, 2002, Faseb J 16:1429-1431, and PCT/U52007/007913).
The detection of membrane androgen receptors using fluorescent testosterone-serum albumin conjugates was performed as described by Kampa, M et al, 2002, Faseb J 16:1429-1431, with minor modifications. Briefly, LNCaP or DU145 prostate cancer cells were cultured on 0.1% gelatin-coated glass coverslips in RPMI 1640 medium supplemented with 2 mM L-Glutamine, 10% Fetal Bovine Serum and 1% Penicillin/Streptomycin for at least 48 hours until reaching 70% confluency. After a 24 hour serum starvation period, cells were incubated with 40 μM testosterone-HSA-FITC for 1 hour at room temperature. The cells were then washed three times with phosphate buffered saline (PBS) and fixed with 3.7% formaldehyde in PBS for 5 minutes at room temperature. Human serum albumin-FITC was used as a control for background staining. […] Coverslips were mounted on slides by using the Slow Fade/Antifade Reagent (Molecular Probes) and studied under a LEICA DMLB microscope, equipped with the appropriate fluorescence filters and a Leica DC 300F camera. Specimens were analyzed using the Leica FW4000 computer program.
To determine the capacity of a given compound to preclude binding of fluorescent testosterone-HSA conjugates (TAC) to the membrane androgen receptor, starved LNCaP or DU145 cells on coverslips prepared as described above were pre-treated with 40 μM of the indicated compound for 30 minutes prior to the addition of testosterone-HSA-FITC. […] Specimens were prepared and analyzed as described above. Compounds binding to the membrane androgen receptor preclude binding of fluorescent testosterone-HSA conjugates to their target and abolish membrane-specific fluorescence.

| Compound | enhancement of the cytotoxic action of paclitaxel ([1]; 1 or 2 uM compound 12 added to paclitaxel 20 nM) | membrane fluorescence of TAC-FITC after pre-treatment (binding to mAR precluded) [2] | CC50 (UAC032 (Melanoma); Homo sapiens, read-out: LC50) | GI50 (UAC032 (Melanoma); Homo sapiens, UAC032, SRB) | TGI (UAC032 (Melanoma); UAC032, SRB) | CC50 (SF295 (CNS); Homo sapiens, SF-295, 48 h, read-out: LC50) | GI50 (SF295 (CNS); Homo sapiens, SF-295, SF295, SRB, 48 h) | TGI (SF295 (CNS); SF295, SRB, 48 h) | membrane fluorescence of TAC-FITC after pre-treatment (binding to mAR precluded) [3] | cytotoxic activity alone ([1]; paclitaxel 20 nM) |
| --- | --- | --- | --- | --- | --- | --- | --- | --- | --- | --- |
| C[C@]12CCC(=NOCCN)C=C1CCC1C2CC[C@]2(C)C(=O)CCC12 (stereo partly drawn) [Compound 12, (10R,13S)-3-(2-aminoethoxyimino)-10,13-dimethyl-2,3,7,8,9,10,11,12,13,14,15,16-dodecahydro-1H-cyclopenta[a]phenanthren-17(6H)-one] | clearly enhances the cytotoxic action | devoid of membrane fluorescence | 49.5 µM | 4.57 µM | 7.64 µM | 9.04 µM | 3.26 µM | 6.15 µM | devoid of membrane fluorescence | – |
| C[C@]12CCC(=NOC3CCNC3)CC1CCC1C2CC[C@]2(C)C(=O)CCC12 (stereo partly drawn) [Compound 56, (10S,13S)-10,13-dimethyl-3-(pyrrolidin-3-yloxyimino)tetradecahydro-1H-cyclopenta[a]phenanthren-17(2H)-one] | – | – | – | – | – | – | – | – | devoid of membrane fluorescence | – |
| CC(=O)O[C@H]1C(=O)[C@@]2(C)[C@H]([C@H](OC(=O)c3ccccc3)[C@]3(O)C[C@H](OC(=O)[C@H](O)[C@@H](NC(=O)c4ccccc4)c4ccccc4)C(C)=C1C3(C)C)[C@]1(OC(C)=O)CO[C@@H]1C[C@@H]2O [Paclitaxel, reference compound] | – | – | – | – | – | – | – | – | – | limited cytotoxic activity |
